Assay results reported in patent publication US9012443B2 (Amgen Inc., priority 2011, dated 2015).
Where two headings read alike, the source gives them in different places.

Tests used:
[1] = biological target: Nav 1.7 (Homo sapiens (Human), UniProt Q15858); assay: Nav 1.7 in vitro PX assay (PatchXpress whole cell voltage clamp); format: cell-based; conditions: 293 cells, human Nav1.7, partially inactivated state; read-out: Nav1.7 PX IC50 IP
Procedure, shortened: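 Partially inactivated channel state (holding potential for 20–50% inactivation) probed in human Nav1.7-transfected 293 cells by automated patch clamp, test pulse −10 mV for 20 msec.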

[2] = biological target: Nav 1.5 (Homo sapiens (Human), UniProt Q14524); assay: Nav 1.5 in vitro PX assay (PatchXpress whole cell voltage clamp); format: cell-based; conditions: 293 cells stably transfected with Nav 1.5
Chain of Nav 1.5 (Q14524 whole entry): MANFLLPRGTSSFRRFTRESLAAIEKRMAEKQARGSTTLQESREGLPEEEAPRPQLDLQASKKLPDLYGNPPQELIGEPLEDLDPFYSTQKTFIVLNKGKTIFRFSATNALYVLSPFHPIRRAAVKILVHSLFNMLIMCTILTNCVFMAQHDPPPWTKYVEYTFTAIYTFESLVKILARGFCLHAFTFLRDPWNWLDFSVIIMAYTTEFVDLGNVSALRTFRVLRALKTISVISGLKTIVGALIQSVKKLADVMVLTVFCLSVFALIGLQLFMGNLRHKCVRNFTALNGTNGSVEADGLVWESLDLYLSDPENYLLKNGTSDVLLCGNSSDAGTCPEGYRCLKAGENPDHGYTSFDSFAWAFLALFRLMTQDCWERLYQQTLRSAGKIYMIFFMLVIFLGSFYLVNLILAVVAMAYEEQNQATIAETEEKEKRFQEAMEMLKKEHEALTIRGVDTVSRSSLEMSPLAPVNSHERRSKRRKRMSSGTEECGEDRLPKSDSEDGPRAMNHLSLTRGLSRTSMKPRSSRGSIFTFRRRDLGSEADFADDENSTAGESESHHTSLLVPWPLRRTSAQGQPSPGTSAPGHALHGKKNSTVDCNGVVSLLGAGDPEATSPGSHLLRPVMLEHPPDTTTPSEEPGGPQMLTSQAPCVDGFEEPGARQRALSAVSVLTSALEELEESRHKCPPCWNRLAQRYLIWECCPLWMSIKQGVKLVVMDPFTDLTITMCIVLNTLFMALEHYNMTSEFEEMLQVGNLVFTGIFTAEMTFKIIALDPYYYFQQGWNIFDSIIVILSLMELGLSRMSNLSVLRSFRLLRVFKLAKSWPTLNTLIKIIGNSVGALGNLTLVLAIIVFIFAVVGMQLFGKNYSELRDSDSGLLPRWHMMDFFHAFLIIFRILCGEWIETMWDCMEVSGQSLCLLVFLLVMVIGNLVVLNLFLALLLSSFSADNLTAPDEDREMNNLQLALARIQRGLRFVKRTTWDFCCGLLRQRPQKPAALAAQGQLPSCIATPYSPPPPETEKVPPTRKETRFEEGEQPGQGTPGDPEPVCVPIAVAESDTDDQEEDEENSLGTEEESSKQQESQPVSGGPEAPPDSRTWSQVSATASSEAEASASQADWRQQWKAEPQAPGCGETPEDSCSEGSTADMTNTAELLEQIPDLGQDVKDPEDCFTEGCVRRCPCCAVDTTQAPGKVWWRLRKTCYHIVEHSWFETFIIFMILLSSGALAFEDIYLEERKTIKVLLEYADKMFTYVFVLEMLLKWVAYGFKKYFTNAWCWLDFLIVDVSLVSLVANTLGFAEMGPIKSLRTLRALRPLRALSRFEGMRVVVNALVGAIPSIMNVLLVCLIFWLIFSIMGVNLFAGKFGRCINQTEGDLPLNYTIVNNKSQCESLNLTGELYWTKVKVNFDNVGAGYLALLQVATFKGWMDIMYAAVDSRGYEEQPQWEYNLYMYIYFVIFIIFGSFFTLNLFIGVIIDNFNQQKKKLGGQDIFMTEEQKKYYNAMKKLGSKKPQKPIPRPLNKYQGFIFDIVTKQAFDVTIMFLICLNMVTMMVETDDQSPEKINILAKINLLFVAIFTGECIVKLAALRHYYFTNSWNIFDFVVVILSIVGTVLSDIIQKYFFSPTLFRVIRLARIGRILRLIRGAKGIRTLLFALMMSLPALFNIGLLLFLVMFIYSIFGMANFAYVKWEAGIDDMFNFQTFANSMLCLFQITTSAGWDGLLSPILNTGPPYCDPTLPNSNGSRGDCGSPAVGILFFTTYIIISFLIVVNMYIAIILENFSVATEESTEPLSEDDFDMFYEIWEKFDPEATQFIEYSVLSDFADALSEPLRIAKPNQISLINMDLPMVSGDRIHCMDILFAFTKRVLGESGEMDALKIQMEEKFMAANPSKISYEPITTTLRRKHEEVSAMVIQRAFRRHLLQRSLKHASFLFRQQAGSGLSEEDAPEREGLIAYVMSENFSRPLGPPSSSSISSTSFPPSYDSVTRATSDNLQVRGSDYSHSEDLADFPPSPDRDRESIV
Method: Nav 1.5 In Vitro PX Assay
293 cells stably transfected with Nav 1.5 were recorded in whole cell voltage clamp mode with the PatchXpress automated electrophysiology system according the manufacturer's specifications (Molecular Devices, LLC, Sunnyvale, Calif.). Cells were held at a holding potential of −50 mV to inactivate sodium channels. To elicit sodium currents the voltage was changed to −120 mV to recover a portion of the channels, followed by delivery of test pulses of 20 msec duration to 0 mV, at 0.1 Hz. A single concentration of test compound was applied to cells for a duration of 5 minutes. Peak sodium current was measured at the end of the compound addition period to determine percent inhibition. A minimum of two cells were tested per concentration. IC50 curves were fitted to percent inhibition as a function of concentration.

[3] = second part of table, read-out: Nav1.5 PX IC50
[4] = first part of table, read-out: Nav 1.5 PX IC50

Chain of Nav 1.7 (Q15858 whole entry): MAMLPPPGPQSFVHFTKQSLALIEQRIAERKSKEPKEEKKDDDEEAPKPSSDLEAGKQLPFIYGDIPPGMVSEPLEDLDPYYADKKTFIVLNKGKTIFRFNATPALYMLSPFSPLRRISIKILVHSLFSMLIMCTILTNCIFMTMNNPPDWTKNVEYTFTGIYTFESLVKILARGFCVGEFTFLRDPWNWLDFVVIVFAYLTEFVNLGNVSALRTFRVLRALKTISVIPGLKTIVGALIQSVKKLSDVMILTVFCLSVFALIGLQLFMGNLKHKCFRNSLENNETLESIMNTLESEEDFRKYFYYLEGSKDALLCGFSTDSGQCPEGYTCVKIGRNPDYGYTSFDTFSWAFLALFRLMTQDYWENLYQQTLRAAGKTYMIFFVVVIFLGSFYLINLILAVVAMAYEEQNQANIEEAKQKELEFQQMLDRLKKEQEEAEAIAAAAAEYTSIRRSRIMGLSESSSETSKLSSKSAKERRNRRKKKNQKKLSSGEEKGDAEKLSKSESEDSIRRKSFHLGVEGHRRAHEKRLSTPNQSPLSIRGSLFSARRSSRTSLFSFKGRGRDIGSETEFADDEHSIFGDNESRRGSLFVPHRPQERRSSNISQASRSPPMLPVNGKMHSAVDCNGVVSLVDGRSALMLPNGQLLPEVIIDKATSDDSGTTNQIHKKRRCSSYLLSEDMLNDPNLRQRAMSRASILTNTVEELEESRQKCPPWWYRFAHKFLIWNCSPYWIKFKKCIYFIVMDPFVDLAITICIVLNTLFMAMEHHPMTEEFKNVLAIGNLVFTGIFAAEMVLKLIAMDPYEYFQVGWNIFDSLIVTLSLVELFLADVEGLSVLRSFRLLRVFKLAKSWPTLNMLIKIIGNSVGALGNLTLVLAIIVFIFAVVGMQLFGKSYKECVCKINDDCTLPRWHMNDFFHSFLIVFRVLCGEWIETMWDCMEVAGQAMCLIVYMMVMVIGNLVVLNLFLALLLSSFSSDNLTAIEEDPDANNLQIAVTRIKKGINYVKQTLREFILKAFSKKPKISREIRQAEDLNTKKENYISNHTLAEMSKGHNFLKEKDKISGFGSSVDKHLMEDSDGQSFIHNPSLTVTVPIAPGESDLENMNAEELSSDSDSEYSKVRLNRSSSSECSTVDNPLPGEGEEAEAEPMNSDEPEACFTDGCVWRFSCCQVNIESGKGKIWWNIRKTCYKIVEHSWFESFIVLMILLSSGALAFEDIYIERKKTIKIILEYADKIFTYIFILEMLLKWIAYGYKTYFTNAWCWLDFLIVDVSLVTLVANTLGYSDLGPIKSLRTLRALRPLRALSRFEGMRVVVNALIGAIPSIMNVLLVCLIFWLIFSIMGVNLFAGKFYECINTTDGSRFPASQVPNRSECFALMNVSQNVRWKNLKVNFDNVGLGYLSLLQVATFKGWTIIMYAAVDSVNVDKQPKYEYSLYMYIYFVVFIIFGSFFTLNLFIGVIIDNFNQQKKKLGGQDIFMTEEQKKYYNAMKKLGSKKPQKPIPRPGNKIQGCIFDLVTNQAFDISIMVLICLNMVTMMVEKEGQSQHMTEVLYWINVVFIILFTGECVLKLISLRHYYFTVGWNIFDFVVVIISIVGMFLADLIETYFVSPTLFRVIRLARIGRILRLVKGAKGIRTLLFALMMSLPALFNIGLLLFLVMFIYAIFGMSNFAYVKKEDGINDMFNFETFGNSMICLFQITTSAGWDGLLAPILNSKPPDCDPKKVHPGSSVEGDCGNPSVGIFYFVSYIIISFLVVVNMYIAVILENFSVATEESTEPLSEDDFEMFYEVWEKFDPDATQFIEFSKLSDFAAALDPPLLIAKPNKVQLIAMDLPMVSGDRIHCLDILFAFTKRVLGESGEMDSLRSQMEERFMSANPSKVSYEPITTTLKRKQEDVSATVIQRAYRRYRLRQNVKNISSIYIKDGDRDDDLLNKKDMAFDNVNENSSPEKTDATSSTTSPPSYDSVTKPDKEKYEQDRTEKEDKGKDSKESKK

Row | IC50 [1] | Structure (SMILES) | IC50 [2, 3] | IC50 [2, 4]
1 | 0.203 µM | COc1cc(Oc2ccc(F)cc2)ccc1-c1nccc2cc(S(=O)(=O)Nc3ccncn3)ccc12 [Example 462, 1-(4-(4-FLUOROPHENOXY)-2-METHOXYPHENYL)-N-(PYRIMIDIN-4-YL)ISOQUINOLINE-6-SULFONAMIDE] | > 30 µM | –
2 | 0.086 µM | COc1cc(-c2ccc(Cl)c(C)c2)ccc1-c1nccc2cc(S(=O)(=O)Nc3ccncn3)ccc12 [Example 493, 1-(4′-CHLORO-3-METHOXY-3′-METHYL-[1,1′-BIPHENYL]-4-YL)-N-(PYRIMIDIN-4-YL)ISOQUINOLINE-6-SULFONAMIDE] | > 30 µM | –
3 | – | O=S(=O)(Nc1ncns1)c1ccc2c(-c3ccc(Cl)cc3F)cccc2c1 [Example 35] | – | 9.99 µM
4 | 0.161 µM | COc1cc(-c2ccc(F)cc2)ccc1-c1nccc2cc(S(=O)(=O)Nc3ccncn3)ccc12 [Example 350, 1-(4′-FLUORO-3-METHOXY-[1,1′-BIPHENYL]-4-YL)-N-(PYRIMIDIN-4-YL)ISOQUINOLINE-6-SULFONAMIDE] | > 30 µM | –
5 | 0.532 µM | COc1cc(C(F)F)c(C2CC2)cc1-c1nccc2cc(S(=O)(=O)Nc3ccncn3)ccc12 [Example 459, 1-(5-CYCLOPROPYL-4-(DIFLUOROMETHYL)-2-METHOXYPHENYL)-N-(PYRIMIDIN-4-YL)ISOQUINOLINE-6-SULFONAMIDE] | > 30 µM | –
6 | 0.257 µM | COc1nc(-c2ccc(C(F)(F)F)cc2OC)c2ccc(S(=O)(=O)Nc3nccs3)cc2n1 [Example 511, 2-methoxy-4-(2-methoxy-4-(trifluoromethyl)phenyl)-N-(thiazol-2-yl)quinazoline-7-sulfonamide] | > 30 µM | –
7 | 0.204 µM | COc1cccc(-c2ccc(-c3nccc4cc(S(=O)(=O)Nc5ccncn5)ccc34)c(OC)c2)c1 [Example 467, 1-(3,3′-DIMETHOXY-[1,1′-BIPHENYL]-4-YL)-N-(PYRIMIDIN-4-YL)ISOQUINOLINE-6-SULFONAMIDE] | > 30 µM | –
8 | – | COc1cc(C)ccc1-c1nccc2cc(S(=O)(=O)Nc3nccs3)ccc12 [Example 175] | > 30 µM | –
9 | – | Nc1cc(Cl)ccc1-c1cccc2cc(S(=O)(=O)Nc3ncns3)ccc12 [Example 31] | – | > 30 µM
10 | – | O=S(=O)(Nc1ncns1)c1ccc2c(-c3ccc(C(F)(F)F)cc3F)cccc2c1 [Example 36] | – | 15.1 µM
11 | – | COc1cc(Cl)ccc1-c1cccc2cc(S(=O)(=O)Nc3ncns3)ccc12 [Example 30] | – | 19.9 µM
12 | – | O=S(=O)(Nc1ncns1)c1ccc2c(-c3ccc(C(F)(F)F)cc3)cccc2c1 [Example 37] | – | 14.4 µM
13 | – | O=S(=O)(Nc1ncns1)c1ccc2c(-c3ccc(Cl)cc3)cccc2c1 [Example 34] | – | 5.96 µM
14 | – | Cc1cc(Cl)ccc1-c1cccc2cc(S(=O)(=O)Nc3ncns3)ccc12 [Example 33] | – | 9.58 µM

Row | Structure (SMILES) | IC50 [1] | IC50 [2, 3] | IC50 [2, 4]
15 | COc1cc(OCC(C)C)ccc1-c1nccc2cc(S(=O)(=O)Nc3ccncn3)ccc12 [Example 361, 1-(4-ISOBUTOXY-2-METHOXYPHENYL)-N-(PYRIMIDIN-4-YL)ISOQUINOLINE-6-SULFONAMIDE] | 0.463 µM | > 30 µM | –
16 | COc1cc(-c2cccc(F)c2)ccc1-c1ncnc2cc(S(=O)(=O)Nc3ccncn3)ccc12 [Example 527, 4-(3′-FLUORO-3-METHOXY-[1,1′-BIPHENYL]-4-YL)-N-(PYRIMIDIN-4-YL)QUINAZOLINE-7-SULFONAMIDE] | 0.252 µM | > 30 µM | –
17 | COc1cc(-c2cc(F)cc(F)c2)ccc1-c1nccc2cc(S(=O)(=O)Nc3cc(C)ncn3)ccc12 [Example 371, 1-(3′,5′-DIFLUORO-3-METHOXY-[1,1′-BIPHENYL]-4-YL)-N-(6-METHYLPYRIMIDIN-4-YL)ISOQUINOLINE-6-SULFONAMIDE] | 0.545 µM | > 30 µM | –
18 | COc1cc(-c2cc(F)cc(F)c2)ccc1-c1nccc2cc(S(=O)(=O)Nc3ccnc(C)n3)ccc12 [Example 370, 1-(3′,5′-DIFLUORO-3-METHOXY-[1,1′-BIPHENYL]-4-YL)-N-(2-METHYLPYRIMIDIN-4-YL)ISOQUINOLINE-6-SULFONAMIDE] | 0.813 µM | > 30 µM | –
